The values below come from patent publication US11053251B2, “GPR35 modulators” (Prometheus Biosciences, Inc., priority 2019, dated 2021).

Experiment [1] addresses Human GPR35 (Homo sapiens, UniProt Q9HC97, S294R). The experiment in a line: Alternative Beta-Arrestin Assay (JumpIn 294R Tango U2OS cells, LiveBLAzer-FRET B/G). As to conditions: for EC50: Human GPR35 expressing JumpIn 294R Tango U2OS cells, 5 hours treatment. It is filed as cell-based. The method in brief:
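U2OS Tango cells expressing human GPR35 S294R, plated overnight, exposed to serially diluted compounds for 5 hours. β-lactamase reporter read with LiveBLAzer-FRET B/G (CCF4-AM) after 2 h; EC50 from four-parameter fit, zaprinast as positive control.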

The target of experiment [2] is Human GPR35 (Homo sapiens, UniProt Q9HC97). Put plainly: Beta-Arrestin Assay (Tango U2OS cells, LiveBLAzer-FRET B/G). It counts as cell-based. The following applies: Human GPR35 expressing Tango U2OS cells, 5 hours treatment. The method, then:
Human GPR35 expressing Tango U2OS cells were plated in 384-well format in clear bottom plates at a cell density of 10,000 cells/well and allowed to grow overnight. The next day, cells were treated with serially diluted test compounds for 5 hours. LiveBLAzer-FRET B/G (CCF4-AM) detection reagents were then added and cells were allowed to incubate for 2 hours before reading plates on a BioTek Cytation 5 plate reader. Zaprinast was used as a positive control for dose-response curves. In order to determine EC50 values, data were fit to a four-parameter dose-response curve.

The term EC50 denotes the midpoint of the concentration-response curve.

Sequence of Human GPR35 (Homo sapiens, UniProt Q9HC97) (Q9HC97 whole entry): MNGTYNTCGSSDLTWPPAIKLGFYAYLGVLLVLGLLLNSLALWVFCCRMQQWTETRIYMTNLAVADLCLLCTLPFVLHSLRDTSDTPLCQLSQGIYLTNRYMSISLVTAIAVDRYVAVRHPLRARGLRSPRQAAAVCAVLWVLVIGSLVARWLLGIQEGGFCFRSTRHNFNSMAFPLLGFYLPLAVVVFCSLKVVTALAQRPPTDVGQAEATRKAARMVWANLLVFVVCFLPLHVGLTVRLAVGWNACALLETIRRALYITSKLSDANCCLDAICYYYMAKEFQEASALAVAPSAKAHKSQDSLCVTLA
Sequence of Human GPR35 (Homo sapiens, UniProt Q9HC97, S294R) (Q9HC97 whole entry S294R): as the sequence (Q9HC97 whole entry) above, with S294R counted along it

With `CCOc1cc(C(=O)Nc2ccccn2)ccc1-c1nc2[nH]nnc2c(=O)[nH]1` [Compound 140, 3-ethoxy-4-(7-oxo-6,7-dihydro-3H-[1,2,3]triazolo[4,5-d]pyrimidin-5-yl)-N-(pyridin-2-yl)benzamide], the EC50 at Human GPR35 [1] and on Human GPR35 [2] was no more than 10 µM in each case.
Take `CCOc1cc(C(=O)Nc2cccnc2)ccc1-c1nc2[nH]nnc2c(=O)[nH]1` [Compound 141, 3-ethoxy-4-(7-oxo-6,7-dihydro-3H-[1,2,3]triazolo[4,5-d]pyrimidin-5-yl)-N-(pyridin-3-yl)benzamide]: the EC50 at Human GPR35 [1] and on Human GPR35 [2] was no more than 10 µM in each case.
Turning to `CCOc1cc(C#N)ccc1-c1nc2[nH]nnc2c(=O)[nH]1` [Compound 142, 3-ethoxy-4-(7-oxo-6,7-dihydro-3H-[1,2,3]triazolo[4,5-d]pyrimidin-5-yl)benzonitrile], the EC50 at Human GPR35 [1] and at Human GPR35 [2] was no more than 10 µM throughout.
For the compound `CCOc1cc(-c2nnn[nH]2)ccc1-c1nc2[nH]nnc2c(=O)[nH]1` [Compound 143, 5-(2-ethoxy-4-(1H-tetrazol-5-yl)phenyl)-3,6-dihydro-7H-[1,2,3]triazolo[4,5-d]pyrimidin-7-one], the EC50 at Human GPR35 [1] and at Human GPR35 [2] was no more than 10 µM throughout.
With `O=C(O)c1ccc(-c2nc3[nH]nnc3c(=O)[nH]2)cc1` [Compound 144, 4-(7-oxo-6,7-dihydro-3H-[1,2,3]triazolo[4,5-d]pyrimidin-5-yl)benzoic acid], the EC50 at Human GPR35 [1] and on Human GPR35 [2] was no more than 10 µM each time.
On to `CCOc1cc(CO)ccc1-c1nc2[nH]nnc2c(=O)[nH]1` [Compound 145, 5-(2-ethoxy-4-(hydroxymethyl)phenyl)-3,6-dihydro-7H-[1,2,3]triazolo[4,5-d]pyrimidin-7-one], for which the EC50 on Human GPR35 [1] and on Human GPR35 [2] was no more than 10 µM in each case.
In the case of `CCOc1cc(CC(=O)O)ccc1-c1nc2[nH]nnc2c(=O)[nH]1` [Compound 146, 2-(3-ethoxy-4-(7-oxo-6,7-dihydro-3H-[1,2,3]triazolo[4,5-d]pyrimidin-5-yl)phenyl)acetic acid], the EC50 at Human GPR35 [1] and at Human GPR35 [2] was no more than 10 µM in each case.
For the compound `O=c1[nH]c(-c2ccc(CO)cc2)nc2[nH]nnc12` [Compound 148, 5-(4-(hydroxymethyl)phenyl)-3,6-dihydro-7H-[1,2,3]triazolo[4,5-d]pyrimidin-7-one], the EC50 on Human GPR35 [1] was greater than 50 µM; on Human GPR35 [2], greater than 10 µM.
Take `O=C(O)Cc1ccc(-c2nc3[nH]nnc3c(=O)[nH]2)cc1` [Compound 149, 2-(4-(7-oxo-6,7-dihydro-3H-[1,2,3]triazolo[4,5-d]pyrimidin-5-yl)phenyl)acetic acid]: the EC50 at Human GPR35 [1] and at Human GPR35 [2] was no more than 10 µM throughout.
Regarding `CCOc1cc(-c2noc(=O)[nH]2)ccc1-c1nc2[nH]nnc2c(=O)[nH]1` [Compound 150, 3-(3-ethoxy-4-(7-oxo-6,7-dihydro-3H-[1,2,3]triazolo[4,5-d]pyrimidin-5-yl)phenyl)-1,2,4-oxadiazol-5(4H)-one], the concentration giving a half-maximal response (EC50) at Human GPR35 [1] and at Human GPR35 [2] was no more than 10 µM each time.
As to `CCOc1cc(B(O)O)ccc1-c1nc2[nH]nnc2c(=O)[nH]1` [Compound 151, (3-ethoxy-4-(7-oxo-6,7-dihydro-3H-[1,2,3]triazolo[4,5-d]pyrimidin-5-yl)phenyl)boronic acid], the EC50 at Human GPR35 [1] and at Human GPR35 [2] was no more than 10 µM throughout.
Regarding `CCOc1cc(C(=O)NS(=O)(=O)N(C)C)ccc1-c1nc2[nH]nnc2c(=O)[nH]1` [Compound 152, N-(N,N-dimethylsulfamoyl)-3-ethoxy-4-(7-oxo-6,7-dihydro-3H-[1,2,3]triazolo[4,5-d]pyrimidin-5-yl)benzamide], the half-maximal effective concentration (EC50) on Human GPR35 [1] and at Human GPR35 [2] was no more than 10 µM each time.
Turning to `CCOc1cc(-c2cccc(-c3nnn[nH]3)c2)ccc1-c1nc2[nH]nnc2c(=O)[nH]1` [Compound 153, 5-(3-ethoxy-3′-(1H-tetrazol-5-yl)-[1,1′-biphenyl]-4-yl)-3,6-dihydro-7H-[1,2,3]triazolo[4,5-d]pyrimidin-7-one], the EC50 on Human GPR35 [1] and at Human GPR35 [2] was no more than 10 µM in each case.
With `CCOc1cc(-c2cccc(C(=O)O)c2C)ccc1-c1nc2[nH]nnc2c(=O)[nH]1` [Compound 154, 3′-ethoxy-2-methyl-4′-(7-oxo-6,7-dihydro-3H-[1,2,3]triazolo[4,5-d]pyrimidin-5-yl)-[1,1′-biphenyl]-3-carboxylic acid], the EC50 at Human GPR35 [1] and at Human GPR35 [2] was no more than 10 µM in each case.
In the case of `CCOc1cc(-c2ccc(C)c(C(=O)O)c2)ccc1-c1nc2[nH]nnc2c(=O)[nH]1` [Compound 155, 3′-ethoxy-4-methyl-4′-(7-oxo-6,7-dihydro-3H-[1,2,3]triazolo[4,5-d]pyrimidin-5-yl)-[1,1′-biphenyl]-3-carboxylic acid], the EC50 on Human GPR35 [1] and on Human GPR35 [2] was no more than 10 µM each time.
As to `CCOc1cc(-c2cccc(C(N)=O)c2)ccc1-c1nc2[nH]nnc2c(=O)[nH]1` [Compound 156, 3′-ethoxy-4′-(7-oxo-6,7-dihydro-3H-[1,2,3]triazolo[4,5-d]pyrimidin-5-yl)-[1,1′-biphenyl]-3-carboxamide], the EC50 on Human GPR35 [1] and at Human GPR35 [2] was no more than 10 µM throughout.
As for `CCOc1cc(-c2cc(C(=O)O)cc(C(=O)O)c2)ccc1-c1nc2[nH]nnc2c(=O)[nH]1` [Compound 157, 3′-ethoxy-4′-(7-oxo-6,7-dihydro-3H-[1,2,3]triazolo[4,5-d]pyrimidin-5-yl)-[1,1′-biphenyl]-3,5-dicarboxylic acid], the EC50 at Human GPR35 [1] and at Human GPR35 [2] was no more than 10 µM throughout.
For `CCOc1cc(C(=O)N2CCC[C@H]2C(=O)O)ccc1-c1nc2[nH]nnc2c(=O)[nH]1` [Compound 158, (3-ethoxy-4-(7-oxo-6,7-dihydro-3H-[1,2,3]triazolo[4,5-d]pyrimidin-5-yl)benzoyl)-L-proline], the “% inhibition at 50 μM” value at Human GPR35 [1] (at 50 μM, Table 2) is 48% inhibition at. For the same compound, the EC50 on Human GPR35 [2] was greater than 10 µM.
Regarding `CCOc1cc(C(=O)N2CCC[C@@H]2C(=O)O)ccc1-c1nc2[nH]nnc2c(=O)[nH]1` [Compound 159, (3-ethoxy-4-(7-oxo-6,7-dihydro-3H-[1,2,3]triazolo[4,5-d]pyrimidin-5-yl)benzoyl)-D-proline], the EC50 was 10 to 50 µM at Human GPR35 [1] and greater than 10 µM at Human GPR35 [2].
For the compound `CCOc1cc(C(=O)N2CC[C@H](C(=O)O)C2)ccc1-c1nc2[nH]nnc2c(=O)[nH]1` [Compound 160, (S)-1-(3-ethoxy-4-(7-oxo-6,7-dihydro-3H-[1,2,3]triazolo[4,5-d]pyrimidin-5-yl)benzoyl)pyrrolidine-3-carboxylic acid], the EC50 at Human GPR35 [1] and on Human GPR35 [2] was no more than 10 µM throughout.
In the case of `CCOc1cc(C(=O)N2CC[C@@H](C(=O)O)C2)ccc1-c1nc2[nH]nnc2c(=O)[nH]1` [Compound 161, (R)-1-(3-ethoxy-4-(7-oxo-6,7-dihydro-3H-[1,2,3]triazolo[4,5-d]pyrimidin-5-yl)benzoyl)pyrrolidine-3-carboxylic acid], the EC50 at Human GPR35 [1] and at Human GPR35 [2] was no more than 10 µM throughout.
Regarding `CCOc1cc(N2CCC[C@H]2C(=O)O)ccc1-c1nc2[nH]nnc2c(=O)[nH]1` [Compound 162, (3-ethoxy-4-(7-oxo-6,7-dihydro-3H-[1,2,3]triazolo[4,5-d]pyrimidin-5-yl)phenyl)-L-proline], the EC50 was 10 to 50 µM at Human GPR35 [1] and no more than 10 µM at Human GPR35 [2].
